Test results: patent publication US20260014119A1, “EMOPAMIL-BINDING PROTEIN INHIBITORS AND USES THEREOF” (BIOGEN MA INC., priority 2022, published 2026)

Molecular target: T1, EBP (Homo sapiens, UniProt Q15125)
T1 construct: HEK293T cells were utilized as the source of EBP enzyme; endogenous in cells; host or cells: HEK293T
Experiment: EBP Functional Assay (EBP immunoaffinity LC-MS assay)
Assay type: biochemical
Conditions: EBP enzyme from HEK293T cells; 30 min with inhibitor, then zymosterol-d5 at 37° C. for 4 h; percent conversion by LC-APCI MRM MS
Method: The EBP immunoaffinity (IA) LC-MS assay measures the potency of small molecule inhibitors of EBP by quantifying their concentration-dependent changes in the enzyme's substrate and product using liquid chromatography atmospheric pressure chemical ionization multiple reaction monitoring mass spectrometry (LC-APCI MRM MS). HEK293T cells were utilized as the source of EBP enzyme. The enzyme was incubated with the small molecule inhibitors at variable concentrations for 30 min. Deuterated form of EBP substrate, zymosterol-d5 (Avanti Polar Lipids, Cat #700068P-1 mg), was then added and the plate was incubated at 37° C. for 4 h. Finally, the sterol isomers were extracted and injected to LC-APCI MRM MS. MRM transition used for the quantification for both zymosterol and […] (substrate and product of EBP enzymatic reaction, respectively) is 372.3-203.2, CE 30 and DP 80 in positive ion mode. Percent conversion of the zymosterol-d5 to dehydrolathosterol-d5 was used to derive IC50 curves. Tasin-1 (1′-[(4-Methoxyphenyl)sulfonyl]-4-methyl-1,4′-bipiperidine, CAS 792927-06-1) was used as the reference small molecule inhibitor.
Percent conversion versus the compound concentration data were fit to the following 4-parameter logistic model to generate IC50 curves: […]

T1 sequence (Q15125 whole entry): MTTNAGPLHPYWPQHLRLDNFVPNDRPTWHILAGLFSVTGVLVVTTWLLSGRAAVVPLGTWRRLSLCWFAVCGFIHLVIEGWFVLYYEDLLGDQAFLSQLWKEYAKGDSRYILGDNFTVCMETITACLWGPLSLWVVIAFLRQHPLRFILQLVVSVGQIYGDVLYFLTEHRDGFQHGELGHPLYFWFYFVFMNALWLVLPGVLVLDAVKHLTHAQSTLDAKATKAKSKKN

IC50 | SMILES
> 500 nM | Cc1nc(C(F)(F)F)ccc1S(=O)(=O)N1C[C@H]2CN(CC3COC3)C[C@@H]2C1 (racemic) [Example 52, Rac-(3aR,6aR)-2-((2-methyl-6-(trifluoromethyl)pyridin-3-yl)sulfonyl)-5-(oxetan-3-ylmethyl)octahydropyrrolo[3,4-c]pyrrole]
100 to 500 nM | Cc1nc(C(F)(F)F)ccc1S(=O)(=O)N1C[C@H]2CN(CC34CCOC(C)(C3)C4)C[C@@H]2C1 (racemic) [Example 53, Rac-(3aR,6aR)-2-((1-methyl-2-oxabicyclo[3.1.1]heptan-5-yl)methyl)-5-((2-methyl-6-(trifluoromethyl)pyridin-3-yl)sulfonyl)octahydropyrrolo[3,4-c]pyrrole]
100 to 500 nM | Cc1nc(C(F)(F)F)ncc1S(=O)(=O)N1C[C@H]2CN(CC3CCOCC3)C[C@@H]2C1 (racemic) [Example 59, Rac-(3aR,6aR)-2-((4-methyl-2-(trifluoromethyl)pyrimidin-5-yl)sulfonyl)-5-((tetrahydro-2H-pyran-4-yl)methyl)octahydropyrrolo[3,4-c]pyrrole]
100 to 500 nM | Cc1nc(C(F)(F)F)ccc1S(=O)(=O)N1C[C@@H]2CN(C3CCOCC3)C[C@H]2C1 (single isomer, unassigned) [Example 47]
100 to 500 nM | Cc1nc(C(F)(F)F)ccc1S(=O)(=O)N1C[C@H]2CN(C3CCOCC3)C[C@@H]2C1 (single isomer, unassigned) [Example 48]
< 100 nM | Cc1ccc(S(=O)(=O)N2C[C@H]3C[C@@H](NCC4CCOCC4)C[C@H]3C2)c(C)c1 [Example 1, (3aR,5r,6aS)-2-((2,4-Dimethylphenyl)sulfonyl)-N-((tetrahydro-2H-pyran-4-yl)methyl)octahydrocyclopenta[c]pyrrol-5-amine]
100 to 500 nM | O=S(=O)(c1ccc(OC(F)F)cc1)N1C[C@H]2C[C@@H](NCC3CCOCC3)C[C@H]2C1 [Example 2, (3aR,5r,6aS)-2-((4-(Difluoromethoxy)phenyl)sulfonyl)-N-((tetrahydro-2H-pyran-4-yl)methyl)octahydrocyclopenta[c]pyrrol-5-amine]
< 100 nM | Cc1ccc(S(=O)(=O)N2C[C@H]3C[C@H](N4CCC(C)CC4)C[C@H]3C2)c(C)c1 [Example 3, (3aR,5s,6aS)-2-((2,4-Dimethylphenyl)sulfonyl)-5-(4-methylpiperidin-1-yl)octahydrocyclopenta[c]pyrrole]
100 to 500 nM | CC1CCN([C@@H]2C[C@@H]3CN(S(=O)(=O)c4ccc(OC(F)F)cc4)C[C@@H]3C2)CC1 [Example 6, (3aR,5r,6aS)-2-((4-(Difluoromethoxy)phenyl)sulfonyl)-5-(4-methylpiperidin-1-yl)octahydrocyclopenta[c]pyrrole]
100 to 500 nM | O=S(=O)(c1ccc(OC(F)F)cc1)N1C[C@H]2C[C@H](NCC3CCOCC3)C[C@H]2C1 [Example 8, (3aR,5s,6aS)-2-((4-(Difluoromethoxy)phenyl)sulfonyl)-N-((tetrahydro-2H-pyran-4-yl)methyl)octahydrocyclopenta[c]pyrrol-5-amine]
100 to 500 nM | COc1ncc(C)cc1S(=O)(=O)N1C[C@H]2C[C@H](NCC3CCOCC3)C[C@H]2C1 [Example 9, (3aR,5s,6aS)-2-((2-Methoxy-5-methylpyridin-3-yl)sulfonyl)-N-((tetrahydro-2H-pyran-4-yl)methyl)octahydrocyclopenta[c]pyrrol-5-amine]
> 500 nM | O=S(=O)(c1ccc(OC(F)F)cc1)N1C[C@H]2C[C@H](N3CCOCC3)C[C@H]2C1 [Example 13, 4-((3aR,5r,6aS)-2-((4-(Difluoromethoxy)phenyl)sulfonyl)octahydrocyclopenta[c]pyrrol-5-yl)morpholine]
> 500 nM | O=S(=O)(c1ccc(OC(F)F)cc1)N1C[C@H]2C[C@H](NC3COC3)C[C@H]2C1 [Example 14, (3aR,5s,6aS)-2-((4-(Difluoromethoxy)phenyl)sulfonyl)-N-(oxetan-3-yl)octahydrocyclopenta[c]pyrrol-5-amine]
< 100 nM | O=S(=O)(c1ccc(OC(F)F)cc1)N1C[C@H]2C[C@H](NC3CCOCC3)C[C@H]2C1 [Example 16, (3aR,5s,6aS)-2-((4-(Difluoromethoxy)phenyl)sulfonyl)-N-(tetrahydro-2H-pyran-4-yl)octahydrocyclopenta[c]pyrrol-5-amine]
100 to 500 nM | CN(CC1CCOCC1)[C@H]1C[C@@H]2CN(S(=O)(=O)c3ccc(OC(F)F)cc3)C[C@@H]2C1 [Example 17, (3aR,5s,6aS)-2-((4-(Difluoromethoxy)phenyl)sulfonyl)-N-methyl-N-((tetrahydro-2H-pyran-4-yl)methyl)octahydrocyclopenta[c]pyrrol-5-amine]
100 to 500 nM | O=S(=O)(c1ccc(OC(F)F)cc1)N1C[C@H]2C[C@H](NC3CC4(COC4)C3)C[C@H]2C1 [Example 19, (3aR,5s,6aS)-2-((4-(Difluoromethoxy)phenyl)sulfonyl)-N-(2-oxaspiro[3.3]heptan-6-yl)octahydrocyclopenta[c]pyrrol-5-amine]

Continued, compound first:

SMILES | IC50
Cc1nc(C(F)(F)F)ccc1S(=O)(=O)N1C[C@H]2CN(C3CC4(COC4)C3)C[C@@H]2C1 (racemic) [Example 50, Rac-(3aR,6aR)-2-((2-methyl-6-(trifluoromethyl)pyridin-3-yl)sulfonyl)-5-(2-oxaspiro[3.3]heptan-6-yl)octahydropyrrolo[3,4-c]pyrrole] | < 100 nM
Cc1nc(C(F)(F)F)ccc1S(=O)(=O)N1C[C@H]2CN(CC3CCOCC3)C[C@@H]2C1 (racemic) [Example 51, Rac-(3aR,6aR)-2-((2-methyl-6-(trifluoromethyl)pyridin-3-yl)sulfonyl)-5-((tetrahydro-2H-pyran-4-yl)methyl)octahydropyrrolo[3,4-c]pyrrole] | < 100 nM
Cc1nc(C(F)(F)F)ccc1S(=O)(=O)N1C[C@H]2CN(CC34COC(C)(C3)C4)C[C@@H]2C1 (racemic) [Example 54] | 100 to 500 nM
Cc1nc(C(F)(F)F)ncc1S(=O)(=O)N1C[C@H]2CN(C3CCOCC3)C[C@@H]2C1 (racemic) [Example 57, Rac-(3aR,6aR)-2-((4-methyl-2-(trifluoromethyl)pyrimidin-5-yl)sulfonyl)-5-(tetrahydro-2H-pyran-4-yl)octahydropyrrolo[3,4-c]pyrrole] | 100 to 500 nM
Cc1nc(C(F)(F)F)ncc1S(=O)(=O)N1C[C@H]2CN(C3CC4(COC4)C3)C[C@@H]2C1 (racemic) [Example 58, Rac-(3aR,6aR)-2-((4-methyl-2-(trifluoromethyl)pyrimidin-5-yl)sulfonyl)-5-(2-oxaspiro[3.3]heptan-6-yl)octahydropyrrolo[3,4-c]pyrrole] | 100 to 500 nM
Cc1nc(C(F)(F)F)ccc1S(=O)(=O)N1C[C@@H]2CN(CC34COC(C)(C3)C4)C[C@H]2C1 (single isomer, unassigned) [Example 55] | 100 to 500 nM
Cc1nc(C(F)(F)F)ccc1S(=O)(=O)N1C[C@H]2CN(CC34COC(C)(C3)C4)C[C@@H]2C1 (single isomer, unassigned) [Example 56] | 100 to 500 nM
CC1CCN([C@H]2C[C@@H]3CN(S(=O)(=O)c4ccc(OC(F)F)cc4)C[C@@H]3C2)CC1 [Example 4, (3aR,5s,6aS)-2-((4-(Difluoromethoxy)phenyl)sulfonyl)-5-(4-methylpiperidin-1-yl)octahydrocyclopenta[c]pyrrole] | 100 to 500 nM
Cc1ccc(S(=O)(=O)N2C[C@H]3C[C@@H](N4CCC(C)CC4)C[C@H]3C2)c(C)c1 [Example 5, (3aR,5r,6aS)-2-((2,4-Dimethylphenyl)sulfonyl)-5-(4-methylpiperidin-1-yl)octahydrocyclopenta[c]pyrrole] | < 100 nM
Cc1ccc(S(=O)(=O)N2C[C@H]3C[C@H](NCC4CCOCC4)C[C@H]3C2)c(C)c1 [Example 7, (3aR,5s,6aS)-2-((2,4-Dimethylphenyl)sulfonyl)-N-((tetrahydro-2H-pyran-4-yl)methyl)octahydrocyclopenta[c]pyrrol-5-amine] | < 100 nM
Cc1cc(C)c(S(=O)(=O)N2C[C@H]3C[C@H](NCC4CCOCC4)C[C@H]3C2)cn1 [Example 10, (3aR,5s,6aS)-2-((4,6-Dimethylpyridin-3-yl)sulfonyl)-N-((tetrahydro-2H-pyran-4-yl)methyl)octahydrocyclopenta[c]pyrrol-5-amine] | > 500 nM
Cn1nc(C2CC2)cc1S(=O)(=O)N1C[C@H]2C[C@H](NCC3CCOCC3)C[C@H]2C1 [Example 12, (3aR,5s,6aS)-2-((3-Cyclopropyl-1-methyl-1H-pyrazol-5-yl)sulfonyl)-N-((tetrahydro-2H-pyran-4-yl)methyl)octahydrocyclopenta[c]pyrrol-5-amine] | 100 to 500 nM
O=S(=O)(c1ccc(OC(F)F)cc1)N1C[C@H]2C[C@H](NC3CCOC3)C[C@H]2C1 (stereo partly drawn) [Example 15, (3aR,5s,6aS)-2-((4-(Difluoromethoxy)phenyl)sulfonyl)-N-(tetrahydrofuran-3-yl)octahydrocyclopenta[c]pyrrol-5-amine] | 100 to 500 nM
